From patent US11964943B2, “3,5-diarylidenyl-n-substituted-piperid-4-one-derived inhibitors of Stat3 pathway activity and uses thereof” (priority 2017, dated 2024)
Where “and” joins values, the source holds several entries; their conditions need not be identical. Equal entries are not always repeated.

What was measured:
Format in all cases: cell-based
[1] = tested on: A2780-cisplatin resistant spheroids; test: Spheroid diameter measurement; details: for Diameter (μm): 96 h
Method: For cell spheroid formation, HCT116-oxaliplatin resistant cells, A2780-cisplatin resistant cells, and HT1080 cells were seeded in Corning® Spheroid opaque-walled 96 well Microplates (ultra-low attachment; Nuclon™ Sphera™, Thermofisher) at densities of 2000 cells/well in 100 μl of cell solution and allowed to grow for 4 days, before any manipulation.
The diameters of spheroid cells were determined using Cell^F Imaging Software. A diameter corresponds to the mean value of one horizontal and one vertical measurement.

[2] = tested on: nuclear Stat3; test: Confocal microscopy of Stat3 localisation; details: DU145, 5 μM, 5 h
Method: For Stat3, pStat3 staining, 2.5×10^4 cells/ml were plated on 13-mm glass cover slip (VWR) in 24 well plates, allowed to adhere and processed the next day. […] Cells were blocked in PBS 5% BSA for 1 h at ambient temperature. Respective proteins were identified by incubation for 4 h with anti-Stat3 and anti-pStat3 rabbit polyclonal antibodies (1:1000, Cell signalling) or anti-phospho-Histone H2A.X mouse monoclonal (1:500; Millipore) diluted in a PBS 1% BSA buffer. Cells were incubated with a secondary fluorescent conjugated antibody Alexa Fluor 488 (1:500; Life Technologies) for 2 h at RT. […]
(§1) Cell nuclei and protein levels were visualized by confocal microscopy (objective ×40, Leica TCS SP2). […] In the case of IE-8 detection only, the blue fluorescent agent was excited with a UV-laser (364 nm) and detected using the DAPI filter. PI was excited with the 488 line of an argon-ion laser and detected at 642 nm. The fluorescence of IE-8 was detected and imaged by z-stack acquisition using the Leica SP2 microscope software. […]
as §1, with “Confocal microscopy.” for “Cell nuclei and protein levels were visualized by confocal microscopy (objective ×40, Leica TCS SP2).”, “8 h” for “IE-8”

[3] = tested on: BRCA1, FANCD2, EME1 and MUS81; test: RT-PCR and immunoblotting of DNA ICL repair factors; details: DU145 cells, 18 h
Method: Whole cell lysates were prepared by incubation of harvested, trypsinised cells with CelLytic™ lysis buffer (Sigma-Aldrich) supplemented with 1× protease and 1× phosphatase inhibitors (Roche). Protein quantification was carried out using a protein assay kit (Bio-Rad). 40 μg of the lysates were denatured by heating for 5 min at 95° C. in sample buffer containing 100 mM Tris-Cl (pH 6.8), 4% SDS, 10% 2-mercaptoethanol, 20% glycerol, and 0.02% bromophenol blue. Precision Plus Protein Dual colour standards (Bio-Rad) were used as a molecular weight reference. For the detection of STAT3, pSTAT3, α/β tubulin, cleaved PARP, Bcl-2, Bcl-xL, FANCD2, BRCA1, EME1 and MUS81, proteins were separated on a NuPAGE 7% Tris-acetate gel (Life Technologies) and subsequently transferred to polyvinylidene difluoride membranes (Immobilon®-P transfer membrane; Millipore). […]
After drug-treatment cells were harvested by trypsinisation followed by centrifugation. […] TaqMan Gene Expression Assays (Life Technologies) for FANCD2, BRCA1, EME1 and MUS81 were used to quantify changes in gene expression. […] Fold change was calculated using the comparative CT method normalizing to GAPDH expression.
RT-PCR. […] TaqMan Gene Expression Assays (Life Technologies) for FANCD2, BRCA1, EME1 and MUS81 were used to quantify changes in gene expression. […] Fold change was calculated using the comparative CT method normalizing to GAPDH expression.

In the case of `COc1cc(/C=C2\CN(c3ccccc3)C/C(=C\c3cc(OC)c(OC)c(OC)c3)C2=O)cc(OC)c1OC` [IE-8, 3,5-Di(3,4,5-trimethoxybenzylidene)-1-phenylpiperidin-4-one], the spheroid size ([1]; 10 μM IE-8, 96 hours) is reported as “markedly decreases the size of the spheroid”, the “Diameter (μm)” value ([1]; IE-8 1.0 μM) is reported as 1176.0 μm and the “Diameter (μm)” value ([1]; IE-8 2.0 μM) is reported as 1037.0 μm. The “Diameter (μm)” value ([1]; IE-8 3.0 μM) was 990.9 μm, the “Diameter (μm)” value ([1]; IE-8 4.0 μM) was 820 μm and 819.7 μm and the “Diameter (μm)” value ([1]; IE-8 5.0 μM) was 619.8 μm. The “levels of nuclear Stat3” value [2] was “the levels of nuclear Stat3 were decreased” and the “expression of BRCA1, FANCD2, EME1 and MUS81 (mRNA and protein)” value [3] was “markedly downregulated”.
